Experimental data reported in US20200236940A1, “2-(HET)ARYL-SUBSTITUTED FUSED HETEROCYCLE DERIVATIVES AS PESTICIDES” (Bayer Aktiengesellschaft, priority 2017, published 2020).

Experiments:
Type in all cases: in vivo
Spodoptera frugiperda [1] = test: Spodoptera frugiperda spray test, maize leaf discs; conditions: application rate 100 g/ha, after 7 days, caterpillars
Method: Spodoptera frugiperda—Spray Test [table] To produce a suitable active ingredient formulation, 1 part by weight of active ingredient is dissolved with the specified parts by weight of solvent and made up to the desired concentration with water containing an emulsifier concentration of 1000 ppm. To produce further test concentrations, the formulation is diluted with emulsifier-containing water. Leaf discs of maize (Zea mays) are sprayed with an active ingredient formulation of the desired concentration and, after drying, populated with caterpillars of the armyworm (Spodoptera frugiperda). After 7 days, the efficacy in % is determined. 100% means that all the caterpillars have been killed; 0% means that no caterpillar has been killed.

Myzus persicae [2] = test: Myzus persicae spray test (MYZUPE), Chinese cabbage leaf discs; conditions: foliar, 120 h
Method: Myzus persicae—Spray Test [table] To produce a suitable active ingredient formulation, 1 part by weight of active ingredient is dissolved with the specified parts by weight of solvent and made up to the desired concentration with water containing an emulsifier concentration of 1000 ppm. To produce further test concentrations, the formulation is diluted with emulsifier-containing water. Discs of Chinese cabbage leaves (Brassica pekinensis) infested by all stages of the green peach aphid (Myzus persicae) are sprayed with an active ingredient formulation of the desired concentration. After 5 days, the efficacy in % is determined. 100% means that all the aphids have been killed; 0% means that no aphids have been killed. Myzus persicae—Spray Test (MYZUPE) [table] To produce a suitable active ingredient formulation, 1 part by weight of active ingredient is dissolved with the specified parts by weight of solvent and made up to the desired concentration with water containing an emulsifier concentration of 1000 ppm. To produce further test concentrations, the formulation is diluted with emulsifier-containing water. Discs of Chinese cabbage leaves (Brassica pekinensis) infested by all stages of the green peach aphid (Myzus persicae) are sprayed with an active ingredient formulation of the desired concentration. After the desired period of time, the efficacy in % is determined. 100% means that all the aphids have been killed; 0% means that no aphids have been killed.

Meloidogyne incognita = Meloidogyne incognita test; conditions: application rate 20 ppm, after 14 days, formation of galls on lettuce
Method: Meloidogyne incognita Test Solvent: 125.0 parts by weight of acetone To produce a suitable active ingredient formulation, 1 part by weight of active compound is mixed with the stated amount of solvent and the concentrate is diluted to the desired concentration with water. Vessels are filled with sand, active compound solution, an egg/larvae suspension of the southern root-knot nematode (Meloidogyne incognita) and lettuce seeds. The lettuce seeds germinate and the plants develop. The galls develop on the roots. After 14 days, the nematicidal efficacy in % is determined by the formation of galls. 100% means that no galls were found; 0% means that the number of galls on the treated plants corresponds to the untreated control.

Phaedon cochleariae [3] = test: Phaedon cochleariae spray test, Chinese cabbage leaf discs; conditions: foliar, 168 h, application rate 100 g/ha, after 7 days, larvae, read-out: efficacy
Method: Phaedon cochleariae—Spray Test
(§1) To produce a suitable active ingredient formulation, 1 part by weight of active ingredient is dissolved with the specified parts by weight of solvent and made up to the desired concentration with water containing an emulsifier concentration of 1000 ppm. To produce further test concentrations, the formulation is diluted with emulsifier-containing water.
After 7 days, the efficacy in % is determined. 100% means that all the beetle larvae have been killed; 0% means that no beetle larvae have been killed.

Myzus persicae [4] = test: Myzus persicae oral test; conditions: 120 h, application rate 4 ppm, after 5 days, read-out: efficacy
Method: Myzus persicae—Oral Test Solvent: 100 parts by weight of acetone To produce a suitable active ingredient formulation, 1 part by weight of active ingredient is dissolved with the stated parts by weight of solvent and made up to the desired concentration with water. 50 μl of the active ingredient formulation are transferred into microtitre plates and made up to a final volume of 200 μl with 150 μl of IPL41 insect medium (33%+15% sugar). Subsequently, the plates are sealed with parafilm, which a mixed population of green peach aphids (Myzus persicae) within a second microtitre plate is able to puncture and imbibe the solution. After 5 days, the efficacy in % is determined. 100% means that all the aphids have been killed; 0% means that no aphids have been killed.

Spodoptera frugiperda [5] = test: Spodoptera frugiperda drench test (SPODFR D); conditions: soil, 336 h, 14 dat, read-out: % efficacy
Method: Spodoptera frugiperda—Drench Test (SPODFR D) [table] To produce a suitable active ingredient formulation, 1 part by weight of active ingredient is mixed with the specified amounts of solvent and emulsifier, and the concentrate is diluted with water to the desired concentration, it being necessary to take into account the volume of soil which is drenched. It should be ensured that a concentration of 40 ppm of emulsifier in the soil is not exceeded. To produce further test concentrations, water is used for dilution. Maize plants (Zea mays) in pots of soil are watered with an active ingredient formulation of the desired concentration and infected with caterpillars of the armyworm (Spodoptera frugiperda). After the desired time, the kill in % is determined. 100% means that all caterpillars have been killed; 0% means that none of the caterpillars have been killed.

Lucilia cuprina = Lucilia cuprina test; conditions: after 2 days, L1 larvae
Method: Lucilia cuprina Test Solvent: dimethyl sulfoxide To produce a suitable active ingredient formulation, 10 mg of active ingredient are mixed with 0.5 ml of dimethyl sulfoxide, and the concentrate is diluted with water to the desired concentration. About 20 L1 larvae of the Australian sheep blowfly (Lucilia cuprina) are transferred into a test vessel containing minced horsemeat and the active ingredient formulation of the desired concentration. After 2 days, the kill in % is determined. 100% means that all the larvae have been killed; 0% means that no larvae have been killed.

Nilaparvata lugens = Nilaparvata lugens spray test (NILALU); conditions: 96 h, 500 g of ai/ha, 4 dat, read-out: % efficacy
Method: Nilaparvata lugens—Spray Test (NILALU)
as §1, with “water. If the addition of ammonium salts or/and penetrants is required, these are each added in a concentration of 1000 ppm to the formulation solution.” for “water.”
Rice plants (Oryza sativa) are sprayed with an active ingredient formulation of the desired concentration and then populated with larvae of the brown planthopper (Nilaparvata lugens).
[…], the efficacy in % is determined. 100% means that all of the planthoppers have been killed; 0% means that none of the planthoppers have been killed.

Phaedon cochleariae [6] = test: Phaedon cochleariae spray test (PHAECO), cabbage leaves; conditions: 168 h, 7 dat, read-out: % efficacy
Method: Phaedon cochleariae—Spray Test (PHAECO)
Solvent: 14 parts by weight of dimethylformamide
Emulsifier: alkylaryl polyglycol ether
as §1, with “water. If the addition of ammonium salts or/and penetrants is required, these are each added in a concentration of 1000 ppm to the formulation solution.” for “water.”
Cabbage leaves (Brassica oleracea) are sprayed with an active ingredient formulation of the desired concentration and populated with larvae of the mustard beetle (Phaedon cochleariae).
After the desired time, the kill in % is determined. 100% means that all the beetle larvae have been killed; 0% means that no beetle larvae have been killed.

Ctenocephalides felis = Ctenocephalides felis oral test; conditions: application rate 100 ppm, after 2 days
Method: Ctenocephalides felis—Oral Test Solvent: dimethyl sulfoxide To produce a suitable active ingredient formulation, 10 mg of active ingredient are mixed with 0.5 ml of dimethyl sulfoxide. Dilution with citrated cattle blood gives the desired concentration. About 20 unfed adult cat fleas (Ctenocephalides felis) are placed into a chamber which is closed at the top and bottom with gauze. A metal cylinder whose bottom end is closed with parafilm is placed onto the chamber. The cylinder contains the blood/active ingredient formulation, which can be imbibed by the fleas through the parafilm membrane. After 2 days, the kill in % is determined. 100% means that all of the fleas have been killed; 0% means that none of the fleas have been killed.

## CCS(=O)(=O)c1ccc(-n2ncn(-c3ccc(Cl)cc3)c2=O)nc1-c1nc2cc(C(F)(F)F)nc(C)c2n1C [Example I-001]
Spodoptera frugiperda [1]
  efficacy: 100%
Myzus persicae [2]; MYZUPE, 20 g of ai/ha, 5 dat, read-out: % efficacy
  Emax at 20 g/ha: 90%
Myzus persicae [2]; MYZUPE, 100 g of ai/ha, 5 dat, read-out: % efficacy
  Emax at 100 g/ha: 90%
Myzus persicae [2]; application rate 20 g/ha, after 5 days, read-out: efficacy
  pest or weed control at 20 g/ha: 90%
Myzus persicae [2]; application rate 100 g/ha, after 5 days, read-out: efficacy
  pest or weed control at 100 g/ha: 90%
Meloidogyne incognita
  nematicidal efficacy: 90%
Phaedon cochleariae [3]
  pest or weed control at 100 g/ha: 100%
Myzus persicae [4]
  pest or weed control at 4 ppm: 90%
Spodoptera frugiperda [5]
  Emax at 20 ppm: 60%
Lucilia cuprina; application rate 20 ppm
  efficacy (kill): 100%
Lucilia cuprina; application rate 100 ppm
  efficacy (kill): 100%
Nilaparvata lugens
  Emax at 500 g/ha: 60%
Phaedon cochleariae [6]
  Emax at 0.8 ppm: 100%
Ctenocephalides felis
  efficacy (kill): 100%
